Experimental data published in publication PMC3214022, “Plasmodium falciparum Parasites Are Killed by a Transition State Analogue of Purine Nucleoside Phosphorylase in a Primate Animal Model” (PLoS ONE, 2011).

Assay: Weights, CBC, blood chemistry and signs of toxicity, Table S1 sheet PD-2 (infected Aotus, twice a day for seven days)
Format: in vivo, Aotus lemurinus lemurinus
Settings: oral 10 mg/kg twice a day/7 days, 25044 Male (ITM2)
Method: Laboratory bred Aotus lemurinus lemurinus monkeys (0.75–0.89 kg) were maintained as described. […] Blood samples were collected before the treatment started (t = 0), 0.05 h, 0.5 h, 1 h, 2 h, 6 h, 24 h, 48 h, and 6, 12 and 18 days after the first dose from each monkey and processed as described below. Pharmacokinetic parameters were calculated using PKSolver. For efficacy studies, Aotus monkeys were inoculated intravenously with 5×10^6 parasites of the FVO strain of P. falciparum in an approved treatment protocol. […] Parasitaemia was determined by Giemsa-stained thick blood smears prepared daily from the marginal ear vein [41]. Blood samples were collected from each monkey and transferred to tubes containing lithium heparin, centrifuged and both plasma and blood cells were frozen at −80 °C until analysis. Animals received a physical examination and blood chemistry profiles were monitored after treatment as described previously. Any monkey not responding appropriately to treatment was cured of its infection with mefloquine (40 mg kg^−1). […] The day of clearance is defined as the first of three consecutive days in which the thick blood films are parasite negative. The day of recrudescence is the first of three consecutive days of positive thick blood films after a period of clearance. Suppression is defined as a transient decrease in the parasite count post-treatment without clearance.

**Q.** Which “Blood Urea Nitrogen” value (day 8) does the source give for `Nc1nc2c(CN3CC(O)C(CO)C3)c[nH]c2c(=O)[nH]1` (stereo not shown) [BCX4945, 4′-deaza-1′-aza-2′-deoxy-1′-(9-methylene)-Immucillin-G] here?
**A.** 14.7 mg/dL

**Q.** What about the Creatine (day 8) of the same compound?
**A.** 0.5 mg/dL

**Q.** What about the Erythrocytes (day 8) of the same compound?
**A.** 4.72e+06 µL⁻¹

**Q.** And the “Glutamate Pyruvate Transaminase” value (day 8)?
**A.** 18.8 U/L

**Q.** And the “Granulocytes (%)” value (day 8)?
**A.** 14.6%

**Q.** And the “Granulocytes (x 103/ul)” value (day 8)?
**A.** 2.8 x 103/ul

**Q.** What about the Hematocrit (day 8) of the same compound?
**A.** 36.6%

**Q.** And the Hemoglobin (day 8)?
**A.** 12.9 g/dL

**Q.** And the Leucocytes (day 8)?
**A.** 18900 µL⁻¹

**Q.** What about the “Lymphocytes (%)” value (day 8) of the same compound?
**A.** 74.4%

**Q.** What about the “Lymphocytes (x 103/ul)” value (day 8) of the same compound?
**A.** 14.1 x 103/ul

**Q.** What about the “Mean Corpuscular Volume” value (day 8) of the same compound?
**A.** 77.6 fL

**Q.** And the “Mean Hemoglobin Content” value (day 8)?
**A.** 35.3 g/dL

**Q.** And the “Mean Platelet Volume” value (day 8)?
**A.** 11.8 fL

**Q.** And the “Monocytes (%)” value (day 8)?
**A.** 11%

**Q.** And the “Monocytes (x 103/ul)” value (day 8)?
**A.** 2.1 x 103/ul

**Q.** And the Platelets (day 8)?
**A.** 276000 µL⁻¹

**Q.** What about the “Red Cell Distribution Width” value (day 8) of the same compound?
**A.** 16.9%

**Q.** And the Reticulocytes (day 8)?
**A.** 1.8%

**Q.** And the WEIGHT (day 8)?
**A.** 820 g

**Q.** What about the “Blood Urea Nitrogen” value (day 12) of the same compound?
**A.** 12.6 mg/dL

**Q.** And the Creatine (day 12)?
**A.** 0.5 mg/dL

**Q.** What about the Erythrocytes (day 12) of the same compound?
**A.** 4.24e+06 µL⁻¹

**Q.** What about the “Glutamate Pyruvate Transaminase” value (day 12) of the same compound?
**A.** 48.0 U/L

**Q.** What about the “Granulocytes (%)” value (day 12) of the same compound?
**A.** 20%

**Q.** And the “Granulocytes (x 103/ul)” value (day 12)?
**A.** 2.6 x 103/ul

**Q.** What about the Hematocrit (day 12) of the same compound?
**A.** 33.5%

**Q.** What about the Hemoglobin (day 12) of the same compound?
**A.** 11.4 g/dL

**Q.** What about the Leucocytes (day 12) of the same compound?
**A.** 13200 µL⁻¹

**Q.** What about the “Lymphocytes (%)” value (day 12) of the same compound?
**A.** 68.9%

**Q.** What about the “Lymphocytes (x 103/ul)” value (day 12) of the same compound?
**A.** 9.1 x 103/ul

**Q.** What about the “Mean Corpuscular Hemoglobin” value (day 12) of the same compound?
**A.** 27 pg

**Q.** And the “Mean Corpuscular Volume” value (day 12)?
**A.** 78.9 fL

**Q.** And the “Mean Hemoglobin Content” value (day 12)?
**A.** 34.2 g/dL

**Q.** And the “Mean Platelet Volume” value (day 12)?
**A.** 9.6 fL

**Q.** What about the “Monocytes (%)” value (day 12) of the same compound?
**A.** 11.1%

**Q.** What about the “Monocytes (x 103/ul)” value (day 12) of the same compound?
**A.** 1.5 x 103/ul

**Q.** And the Platelets (day 12)?
**A.** 264000 µL⁻¹

**Q.** What about the “Red Cell Distribution Width” value (day 12) of the same compound?
**A.** 20.2%

**Q.** What about the Reticulocytes (day 12) of the same compound?
**A.** 3.8%

**Q.** And the WEIGHT (day 12)?
**A.** 840 g

**Q.** What about the “Blood Urea Nitrogen” value (day 15) of the same compound?
**A.** 13.8 mg/dL

**Q.** What about the Creatine (day 15) of the same compound?
**A.** 0.5 mg/dL

**Q.** What about the Erythrocytes (day 15) of the same compound?
**A.** 4.68e+06 µL⁻¹

**Q.** And the “Glutamate Pyruvate Transaminase” value (day 15)?
**A.** 29.1 U/L

**Q.** What about the “Granulocytes (%)” value (day 15) of the same compound?
**A.** 11.9%

**Q.** What about the “Granulocytes (x 103/ul)” value (day 15) of the same compound?
**A.** 3.4 x 103/ul

**Q.** And the Hematocrit (day 15)?
**A.** 38.8%

**Q.** And the Hemoglobin (day 15)?
**A.** 13.6 g/dL

**Q.** And the Leucocytes (day 15)?
**A.** 28300 µL⁻¹

**Q.** What about the “Lymphocytes (%)” value (day 15) of the same compound?
**A.** 78.1%

**Q.** What about the “Lymphocytes (x 103/ul)” value (day 15) of the same compound?
**A.** 22.1 x 103/ul

**Q.** And the “Mean Corpuscular Hemoglobin” value (day 15)?
**A.** 29 pg

**Q.** What about the “Mean Corpuscular Volume” value (day 15) of the same compound?
**A.** 83 fL

**Q.** And the “Mean Hemoglobin Content” value (day 15)?
**A.** 34.9 g/dL

**Q.** What about the “Mean Platelet Volume” value (day 15) of the same compound?
**A.** 12.8 fL

**Q.** What about the “Monocytes (%)” value (day 15) of the same compound?
**A.** 10%

**Q.** What about the “Monocytes (x 103/ul)” value (day 15) of the same compound?
**A.** 2.8 x 103/ul

**Q.** And the Platelets (day 15)?
**A.** 258000 µL⁻¹

**Q.** What about the “Red Cell Distribution Width” value (day 15) of the same compound?
**A.** 23.1%

**Q.** What about the Reticulocytes (day 15) of the same compound?
**A.** 2.6%

**Q.** And the WEIGHT (day 15)?
**A.** 830 g

**Q.** What about the “Blood Urea Nitrogen” value (day 18) of the same compound?
**A.** 15.2 mg/dL

**Q.** What about the Creatine (day 18) of the same compound?
**A.** 0.5 mg/dL

**Q.** What about the Erythrocytes (day 18) of the same compound?
**A.** 4.88e+06 µL⁻¹

**Q.** What about the “Glutamate Pyruvate Transaminase” value (day 18) of the same compound?
**A.** 22.3 U/L

**Q.** And the “Granulocytes (%)” value (day 18)?
**A.** 15.5%

**Q.** And the “Granulocytes (x 103/ul)” value (day 18)?
**A.** 2.7 x 103/ul

**Q.** What about the Hematocrit (day 18) of the same compound?
**A.** 40.6%

**Q.** What about the Hemoglobin (day 18) of the same compound?
**A.** 13.7 g/dL

**Q.** And the Leucocytes (day 18)?
**A.** 17100 µL⁻¹

**Q.** What about the “Lymphocytes (%)” value (day 18) of the same compound?
**A.** 78%

**Q.** What about the “Lymphocytes (x 103/ul)” value (day 18) of the same compound?
**A.** 13.3 x 103/ul

**Q.** What about the “Mean Corpuscular Hemoglobin” value (day 18) of the same compound?
**A.** 28.1 pg

**Q.** What about the “Mean Corpuscular Volume” value (day 18) of the same compound?
**A.** 83.2 fL

**Q.** And the “Mean Hemoglobin Content” value (day 18)?
**A.** 33.8 g/dL

**Q.** What about the “Mean Platelet Volume” value (day 18) of the same compound?
**A.** 12.1 fL

**Q.** What about the “Monocytes (%)” value (day 18) of the same compound?
**A.** 6.5%

**Q.** What about the “Monocytes (x 103/ul)” value (day 18) of the same compound?
**A.** 1.1 x 103/ul

**Q.** What about the Platelets (day 18) of the same compound?
**A.** 247000 µL⁻¹

**Q.** And the “Red Cell Distribution Width” value (day 18)?
**A.** 22.6%

**Q.** What about the Reticulocytes (day 18) of the same compound?
**A.** 2.2%

**Q.** And the WEIGHT (day 18)?
**A.** 820 g

**Q.** And the Erythrocytes (day 25)?
**A.** 4.04e+06 µL⁻¹

**Q.** What about the “Granulocytes (%)” value (day 25) of the same compound?
**A.** 11.4%

**Q.** What about the “Granulocytes (x 103/ul)” value (day 25) of the same compound?
**A.** 2.3 x 103/ul

**Q.** And the Hematocrit (day 25)?
**A.** 34.8%

**Q.** And the Leucocytes (day 25)?
**A.** 19900 µL⁻¹

**Q.** And the “Lymphocytes (%)” value (day 25)?
**A.** 79.1%

**Q.** And the “Lymphocytes (x 103/ul)” value (day 25)?
**A.** 15.7 x 103/ul

**Q.** And the “Mean Corpuscular Hemoglobin” value (day 25)?
**A.** 27.6 pg
